Where a SMILES comes first, the peptide text is derived from it. [ ]: non-standard residue; d: D form. NMeH = CN[C@@H](Cc1c[nH]cn1)C(=O)O; Gly(N-CH2CH2OH) = O=C(O)CNCCO; NMeL = CN[C@@H](CC(C)C)C(=O)O
Test system: A/Parma/24/09 H1N1 virus
Conditions: for EC50: read-out: EC50 (concentration that reduced cytopathic effect by 50%)

| Structure (SMILES) | SI (ratio of CC50 and EC50) | EC50 [nM] |
| --- | --- | --- |
| CC(=O)N[C@@H](CO)C(=O)N(C)[C@@H](CC(C)C)C(=O)N[C@@H](CC(=O)O)C(=O)N[C@@H](CS)C(N)=O [Peptide 4, S(N-Me)LDC] (Ac-S[NMeL]DC-NH2) | >2.9 × 10^5 | 0.085 |
| CC(=O)N[C@@H](CO)C(=O)N[C@@H](CCCCN)C(=O)N(C)[C@@H](Cc1c[nH]cn1)C(=O)N[C@@H](CO)C(N)=O [Peptide 9, SK(N-Me)HS] (Ac-SK[NMeH]S-NH2) | >1.78 × 10^3 | 0.143 |
| CC(=O)N[C@@H](CO)C(=O)N[C@@H](CCCCN)C(=O)N[C@@H](Cc1c[nH]cn1)C(=O)N(CCO)CC(N)=O [Peptide 18, SKHNhS] (Ac-SKH[Gly(N-CH2CH2OH)]-NH2) | >5 × 10^5 | 0.05 |

Source: paper PMC10531517, “Rational Design of Novel Peptidomimetics against Influenza A Virus: Biological and Computational Studies” (International Journal of Molecular Sciences, 2023)
